# Key:
# Type in all cases: cell-based
# [1] = MTT assay, cell viability of RAW264.7 cells; settings: mouse, half inhibitory of RAW264.7 cells
# Experimental: (§1) HepG2 cells (1 × 10^4 cells/well) or RAW264.7 cells ([…]) were incubated in 96T wells for 24 h. Then, HepG2 cells were treated with compounds or Adriamycin for 48 h. In addition, RAW264.7 cells were treated with compounds for 24 h. Then, 0.5% MTT (Sigma, Saint Louis, MO, USA) was added to 20 μL/well for 3.5 h. The supernatant was discarded, and DMSO (150 μL/well) was added to dissolve the purple formazan. Cells were agitated for 15 min at room temperature, and the absorbance at 490 nm was recorded by SpetraMax M2 (Molecular Devices, San Jose, CA, USA).
# (§2) RAW264.7 cells (8 × 10^4 cells/well) were incubated in 96T wells with DMEM for 24 h and then treated with compounds and LPS (1 μg/mL) for 24 h; this included the control group and LPS group. Then, the cell supernatant was collected for nitric oxide production assay. Next, 100 uL/well PBS was added to 96T wells, then 0.5% MTT (Sigma, Saint Louis, MO, USA) was added to 20 μL/well for 3.5 h. DMSO (150 μL/well) was added to dissolve the purple formazan. Cells were agitated for 15 min at room temperature, and the absorbance at 490 nm was recorded by SpetraMax M2 (Molecular Devices, San Jose, CA, USA). The NO inhibition rate (%) = (ODLPS group − ODcompound group)/(ODLPS group-ODcontrol group) × 100%. The IC50 value refers to the inhibitory of nitric oxide production of LPS-stimulated RAW264.7 cells. Then, 70 uL of each cell supernatant sample was added into a new 96T plate, and Griess A and Griess B were added separately. Then, the absorbance value at 540 nm was detected and then brought into the standard curve to assay the concentration of NO. The cell survival rate (%) = (ODcompound group − ODblank group)/(ODcontrol group − ODblank group) × 100%. The half concentration of the cell death (CC50) value refers to the concentration of compound 5 when 50% of RAW264.7 cells die. The iNOS inhibitor ([…], L-NMMA) was selected as the positive control. The levels of cytokines (IL-1β, IFN-γ, IL-10, TNF-α, and IL-6) in the cell supernatant were determined using an ELISA kit (Novus Biologicals, Shanghai, China, Lot: 834472, 770118, 772051, 486956, 602865). When the process was conducted according to the manufacturer’s instructions, the absorbance was read at 450 nm/570 nm in a SpectraMax 340PC microplate spectrophotometer (Molecular Devices, San Jose, CA, USA).
# Huh-7 cells = assay: Apoptosis of Huh-7 cells by flow cytometry (Annexin V/PI)
# Source text: 2. The anti-proliferation of compound 5 on Huh-7 cells
# We tested another hepatoma cell line (Huh-7) to validate effect of compound 5. L02 (normal hepatocytes), HepG2 and Hub-7 cells were used to discuss the effect of 5. […]
# of 5 on Huh-7 cell was (24.49±[…]) μM (Table S1). The morphology and apoptosis of the cells by reversed microscope and flow cytometry, respectively.
# Second, the expression and phosphorylation of ATP1A1 were detected by Western blot analysis in L02, HepG2 and Huh-7 cells. Compared with L02 group, the expression of ATP1A1 was higher in HepG2 and Huh-7 cells, but there was no significant difference in the phosphorylation of ATP1A1 (Figure […]
# At last, the effect of 5 on the expression and the phosphorylation of ATP1A1 in Huh-7 cells was […]
# the phosphorylation of ATP1A1. The result was consistent with that observed in HepG2 cells (Figure […]
# Table S1 Cell viability of Huh-7 cell treated by compound 5
# Figure S2 Compound 5 inhibited the proliferation and the level of ATP1A1 protein in Huh-7 cells L5, low concentration of 5 (12.5 μmol-1 ); H5, high concentration of 5 (25 μmol-1). […] (B) Image of cell apoptosis in Huh-7 cells was detected by flow cytometry. The cells were double stained with Annexin V and PI. […] Data are expressed as the mean ± standard deviation (n=3). *p<0.05, **p<0.01, ***p<0.001 vs. the control group. […]
# [2] = tested on: NO production of LPS-stimulated RAW264.7 cells; assay: Nitric oxide production in LPS-stimulated RAW264.7 cells (Griess)
# Experimental: as §2
# HepG2 cells = assay: MTT assay, cell viability of HepG2 cells; settings: Homo sapiens, HepG2, 48 h
# Experimental: as §1
# ATP1A1 = ATP1A1 (Homo sapiens, UniProt P05023); assay: ATP1A1 level and location in HepG2 cells (western blot, fluorescence staining, lysosomal colocalization); design: we focused on the regulatory effect of 5 on ATP1A1 in HepG2 cells; endogenous in cells; host or cells: HepG2
# Experimental: HepG2 cells (4 × 10^5 cells/well) were incubated in confocal dishes with DMEM for 24 h and then treated with compounds for 48 h. Then, the cells were treated with 0.1% Triton X-100 for 10 min and washed with PBS five times. Finally, the cells were dyed with anti-ATP1A1 at 4 °C overnight. Nuclear staining with DAPI (1 μg∙mL^−1) was added for 7 min in the dark, and the cells were washed. The stained images were captured under a laser scanning confocal microscope (Nikon A1 AIR MP+, Tokyo, Japan). HepG2 cells (5 × 10^5 cells/well) were incubated in 6-well plates in complete DMEM. Cells were treated with compounds for 24 h. Then, the cells were stained with Annexin V/PI for 30 min at 4 °C in the dark, and apoptosis analysis was carried out by laser scanning confocal microscopy.
# Protein samples were prepared using a RIPA lysis buffer. The concentration of the protein was analyzed using a nucleic acid and protein microanalyzer (Molecular Devices, San Jose, CA, USA). SDS–PAGE was performed to separate the proteins, which were then electrotransferred onto a PVDF membrane. The membrane was incubated with antibodies at 4 °C overnight. Next, the membrane was washed and incubated with an HRP-conjugated secondary antibody (Beyotime, BeiJing, China). Finally, signals were detected by the ECL method (Beyotime, BeiJing, China) and analyzed using ImageJ software.
compound,measurement,setting,value
"C[C@H](O)[C@]1(O)CC[C@@]2(O)[C@]1(C)[C@H](OC(=O)/C=C/c1ccccc1)C[C@@H]1[C@@]3(C)CC[C@H](O[C@H]4C[C@H](O)[C@H](O)[C@@H](C)O4)CC3=CC[C@]12O [Compound 5, Cynsaccatol L]",CC50 at 24 h,[1],30.1 ± 3.14 µM
same,apoptosis of Huh-7 cells,Huh-7 cells,induce apoptosis of Huh-7 cells
same,inhibitory activity on NO production relative to the positive control drug (L-NMMA),[2]; LPS-stimulated RAW264.7 cells,1000 times
same,IC50,"[2]; Mus musculus, LPS (1 μg/mL)-stimulated RAW264.7 cells, 24 h, read-out: RAW264.7 IC50 (inhibition of nitric oxide production)",0.02 ± 0.02 µM
same,IC50,HepG2 cells,12.6 ± 2.13 µM
same,endocytosis of ATP1A1 protein (lysosomal colocalization assay),"ATP1A1; HepG2, 12.5 or 25 μmol∙L−1 for 48 h, 25 μmol∙L−1 for 12 h or 24 h",induce the endocytosis of the ATP1A1 protein
same,expression of ATP1A1 (comparison with inhibitors),"ATP1A1; HepG2, 5 25 μmol∙L−1, digitonin 10, MK 2206 40, FR 180204 200 nmol∙L−1, western blot",decreased
same,green fluorescence intensity of ATP1A1 on the cell membrane,"ATP1A1; HepG2 cells, fluorescence staining",significantly reduced in a dose-dependent manner
same,level of ATP1A1,"ATP1A1; HepG2 cells, western blot",significantly reduced
